The values below come from ChEMBL document CHEMBL3044938, “Chromatographic separation and in vitro activity of sorgoleone congeners from the roots of sorghum bicolor” (J Agric Food Chem, 2003).

In the assay the target is Photosystem II protein D1 (Spinacia oleracea, UniProt P69560). The assay can be described thus: Inhibition of photosystem II mediated oxygen evolution in Spinacia oleracea (spinach) thylakoid measured for 25 sec. Particulars: read-out: I50.

Take `C=CC/C=C\C/C=C\CCCCCCCC1=C(O)C(=O)C=C(OC)C1=O` [SORGOLEONE]: the IC50 turned out to be 65 nM.

Turning to `CCC/C=C\C/C=C\CCCCCCCC1=C(O)C(=O)C=C(OC)C1=O` [Sorgoleone-360], the IC50 was 104 nM.

In the case of `CCCCCC/C=C\CCCCCCCC1=C(O)C(=O)C=C(OC)C1=O` [Sorgoleone-362], the IC50 is 109 nM.

On to `CCCCCCCCCCCCCC1=C(O)C(=O)C=C(OC)C1=O` [Sorgoleone-364], for which the IC50 turned out to be 103 nM.
